In publication PMC8119466, “A screen of FDA-approved drugs identifies inhibitors of protein tyrosine phosphatase 4A3 (PTP4A3 or PRL-3)” (Scientific Reports, 2021):
Where a name gives a salt, the structure may show the parent alone. Read-outs that look alike come from different tables or passages of the source.

How the values were obtained:
Type in all cases: biochemical
recombinant PRL-2 = target: T1, recombinant PRL-2 (Homo sapiens, UniProt Q12974); experiment: In vitro phosphatase assay (DiFMUP hydrolysis), PRL-2;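 also: PRL-2 activity read as DiFMUP hydrolysis after 20 min at room temperature with drug, enzyme first pre-reduced at 4 °C for 20 min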
T1 construct: 6xHis (N, cleaved yes); made in house; host or cells: E. coli One Shot BL21 Star
T1 sequence (Q12974 1-167): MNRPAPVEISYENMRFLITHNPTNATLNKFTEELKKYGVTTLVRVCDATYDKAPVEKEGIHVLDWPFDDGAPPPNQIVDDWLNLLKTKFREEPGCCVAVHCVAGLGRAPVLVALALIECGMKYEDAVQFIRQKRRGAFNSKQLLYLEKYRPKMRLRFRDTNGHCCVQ

recombinant PRL-3 = target: T2, recombinant PRL-3 (Homo sapiens, UniProt O75365); experiment: In vitro phosphatase assay (DiFMUP hydrolysis), PRL-3; also: test concentration or dose not given here
T2 construct: 6xHis (N, cleaved yes); made in house; host or cells: E. coli One Shot BL21 Star

recombinant PRL-1 = target: T3, recombinant PRL-1 (Homo sapiens, UniProt Q93096); experiment: In vitro phosphatase assay (DiFMUP hydrolysis), PRL-1; also: test concentration or dose not given here
T3 construct: 6xHis (N, cleaved yes); made in house; host or cells: E. coli One Shot BL21 Star
T3 sequence (Q93096 1-173): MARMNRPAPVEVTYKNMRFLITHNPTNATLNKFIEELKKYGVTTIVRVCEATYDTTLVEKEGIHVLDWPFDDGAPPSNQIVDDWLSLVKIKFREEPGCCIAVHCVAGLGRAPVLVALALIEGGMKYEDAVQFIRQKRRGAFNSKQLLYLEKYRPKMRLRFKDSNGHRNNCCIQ

[1] = FDA-approved drug screen, compared to DMSO
[2] = FDA-approved drug screen, activity compared to DMSO

T2 sequence (O75365 whole entry): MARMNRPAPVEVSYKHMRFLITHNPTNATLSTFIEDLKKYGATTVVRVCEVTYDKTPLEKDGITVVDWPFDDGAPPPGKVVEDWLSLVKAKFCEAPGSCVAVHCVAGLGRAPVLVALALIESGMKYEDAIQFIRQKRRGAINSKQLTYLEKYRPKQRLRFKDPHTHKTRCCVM

Row | SMILES | % Phosphatase Activity (compared to DMSO) PRL-2 (recombinant PRL-2; [1]) [%] | % Phosphatase Activity (compared to DMSO) PRL-3 (recombinant PRL-3; [1]) [%] | % Phosphatase Activity (compared to DMSO) PRL-1 (recombinant PRL-1; [1]) [%] | further results
1 | COc1ccc(C[C@@H](C)NC[C@H](O)c2ccc(O)c(NC=O)c2)cc1.COc1ccc(C[C@@H](C)NC[C@H](O)c2ccc(O)c(NC=O)c2)cc1.O=C(O)/C=C/C(=O)O [Formoterol Hemifumarate] | 106 | 91 | 95 | 
2 | Cc1[nH]c(=O)c(C#N)cc1-c1ccncc1 [Milrinone] | 110 | 83 | 98 | 
3 | Cc1c(-c2ccnn2C)cc(C(=O)NCc2ccc(S(C)(=O)=O)cn2)c(=O)n1-c1cccc(C(F)(F)F)c1 [Alvelestat (AZD9668)] | 114 | 121 | 138 | 
4 | C[C@@H]1COC(Nc2ccc3ncnc(Nc4ccc(OCc5nccs5)c(Cl)c4)c3c2)=N1 [Varlitinib] |  |  |  | % Phosphatase Activity (compared to DMSO) PRL-2 (recombinant PRL-2; [2]): 142%; % Phosphatase Activity (compared to DMSO) PRL-3 (recombinant PRL-3; [2]): 132%; % Phosphatase Activity (compared to DMSO) PRL-1 (recombinant PRL-1; [2]): 126%
5 | Cc1ccc(-n2nc(C(C)(C)C)cc2NC(=O)NCc2cc(F)ccc2Oc2ccc3c(cnn3CCO)c2)cc1 [Pexmetinib (ARRY-614)] | 103 | 117 | 106 | 
6 | CC(=O)OCC(=O)[C@H]1CC[C@H]2[C@@H]3CCC4=CC(=O)CC[C@]4(C)[C@H]3CC[C@]12C [Deoxycorticosterone acetate] | 83 | 74 | 84 | 
7 | CN1CCN2c3ccccc3Cc3ccccc3C2C1 (stereo not drawn) [Mianserin HCl] | 99 | 59 | 95 | 
8 | CN(CCOc1ccc(CC2SC(=O)NC2=O)cc1)c1ccccn1 (stereo not drawn) [Rosiglitazone maleate] | 113 | 87 | 104 | 
9 | C[C@]12C=CC(=O)C=C1CC[C@@H]1[C@@H]2C(=O)C[C@@]2(C)[C@H]1CC[C@]2(O)C(=O)CO [Prednisone] | 91 | 80 | 98 | 
10 | CCOC(=O)[C@H](CCc1ccccc1)N[C@@H](C)C(=O)N1Cc2ccccc2C[C@H]1C(=O)O [Quinapril HCl] | 106 | 80 | 92 | 
11 | CC(C)NCC(O)COc1ccc(CCOCC2CC2)cc1.Cl (stereo not drawn) [Betaxolol hydrochloride (Betoptic)] |  |  |  | % Phosphatase Activity (compared to DMSO) PRL-2 (recombinant PRL-2): 99%; % Phosphatase Activity (compared to DMSO) PRL-3 (recombinant PRL-3): 97%; % Phosphatase Activity (compared to DMSO) PRL-1 (recombinant PRL-1): 84%
12 | O=C1c2c(O)ccc(O)c2C(=O)c2c(NCCNCCO)ccc(NCCNCCO)c21 [Mitoxantrone HCl] | 76 | 61 | 74 | 
13 | C[C@H](CCC(=O)O)[C@H]1CC[C@H]2[C@@H]3CC[C@@H]4C[C@H](O)CC[C@]4(C)[C@H]3C[C@H](O)[C@]12C [Deoxycholic acid] | 73 | 96 | 89 | 
14 | C[C@]12CC[C@@H]3c4ccc(O)cc4CC[C@H]3[C@@H]1CCC2=O [Estrone] | 87 | 76 | 107 | 
15 | Cc1ccc(Cl)c(Nc2ccccc2C(=O)O)c1Cl [Meclofenamate Sodium] | 104 | 81 | 99 | 
16 | C[C@H]1O[C@H](O[C@H]2[C@H](O)[C@@H](O)[C@@H](O[C@H]3[C@H](O)[C@@H](O)C(O)O[C@@H]3CO)O[C@@H]2CO)[C@H](O)[C@@H](O)[C@@H]1N[C@H]1C=C(CO)[C@@H](O)[C@H](O)[C@H]1O (stereo partly drawn) [Acarbose] | 102 | 73 | 94 | 
17 | CCOC(=O)c1ncn2c1CN(C)C(=O)c1cc(F)ccc1-2 [Flumazenil] | 102 | 69 | 106 | 
